Test results as given in patent US20230016424A1, “HYBRID AMIDE DERIVATIVES OF AMPHOTERICIN B” (The Board of Trustees of the University of Illinois, priority 2019, published 2023).
Converted amounts (≈) assume the structure as drawn.

How the values were obtained:
[1] = Liver Microsome stability (In Vitro Metabolism); assay type: in vitro ADME; conditions: for Remaining (T = NCF60 min): no cofactor 60 min
Description: Working Compound solution: 10 uM in 50 mM potassium phosphate buffer with 9% MeOH and 1% DMSO
Microsome solution: working concentration 0.625 mg/ml
Stopping solution: Cold ACN with 200 ng/ml Tolbutamide and 200 ng/ml Labetalol (4° C.)
Procedure: In the well plates (T5, T10, T20, T30, T60, NCF60 (no cofactor 60)) 10 uL of the compound/control working solution was added (except T0 and matric blank) followed by microsome solution (80 uL) and the mixture was incubated at 37 C for about 10 mins. A solution of potassium phosphate (10 ul of 50 mM) was added to NCF60 well, incubated at 37 C and time counting started. After prewarming 10 ul of NADPH regenerating solution was added to each plate to start the reaction. At different time point 300 uL/well of stopping solution to terminate the reaction. The sampling plates were shaken for 10 mins and the centrifuged for 20 mins at 4000 rpm. The supernatant was half diluted with ultra pure water and the analyzed using LCMS.

[2] = Plasma Stability; assay type: in vitro ADME
Description: Plasma Stability: Procedure: […] Plasma was warmed to 37° C. prior to the experiment and centrifuged for 5 mins at 4000 rpm. […] Each time point was monitored in triplicate (0, 10, 30, 60 and 120 min). 4 uL/well aliquot of the working solution was mixed to the blank plasma and incubated at 37° C. AT each time point samples were quenched with ACN stop solution containing 200 ng/ml Tolbutamide & 200 ng/ml Labetalol at 1:3 ratio and mix well on shaker for 10 min then centrifuge at 4000 rpm for 15 min. A 100 ul aliquot of supernatant was mixed with 100 μL of ultra-pure and submitted for LC-MS/MS analysis.

[3] = test system: C. krusei; assay: MIC; assay type: cell-based
[4] = test system: A. fumigatus 1163; assay: MIC; assay type: cell-based
[5] = test system: C. tropicalis; assay: MIC; assay type: cell-based
[6] = test system: C. albicans SN250, C. albicans, C. krusei, C. glabrata, C. tropicalis, A. fumigatus 91, 1163, 1100; assay: Average MIC over the tested strains; assay type: cell-based; conditions: Tables 8 and 9, average over the 8 listed strains
[7] = test system: C. albicans; assay: MIC; assay type: cell-based
[8] = test system: C. albicans SN250; assay: MIC; assay type: cell-based, Candida albicans
[9] = test system: A. fumigatus 1100; assay: MIC; assay type: cell-based

Row | Compound | CL ([1]; Dog liver microsomes) [µL/min/mg] | CLint ([1]; Dog liver microsomes) [mL/min/kg] | Remaining (T = 60 min) ([1]; Dog liver microsomes) [%] | T1/2 ([1]; Dog liver microsomes) [h] | Remaining (T = NCF60 min) ([1]; Dog liver microsomes) [%] | CL ([1]; Human liver microsomes) [µL/min/mg] | CLint ([1]; Human liver microsomes) [mL/min/kg] | Remaining (T = 60 min) ([1]; Human liver microsomes) [%] | T1/2 ([1]; Human liver microsomes) [h] | Remaining (T = NCF60 min) ([1]; Human liver microsomes) [%] | CL ([1]; Monkey liver microsomes) [µL/min/mg] | CLint ([1]; Monkey liver microsomes) [mL/min/kg] | Remaining (T = 60 min) ([1]; Monkey liver microsomes) [%] | T1/2 ([1]; Monkey liver microsomes) [h] | Remaining (T = NCF60 min) ([1]; Monkey liver microsomes) [%] | CL ([1]; Mouse liver microsomes) [µL/min/mg] | CLint ([1]; Mouse liver microsomes) [mL/min/kg] | Remaining (T = 60 min) ([1]; Mouse liver microsomes) [%] | T1/2 ([1]; Mouse liver microsomes) [h] | Remaining (T = NCF60 min) ([1]; Mouse liver microsomes) [%] | other results
1 | COC(=O)C(Cc1c[nH]cn1)NC(=O)C1C(O)CC2(O)CC(O)CC(O)C(O)CCC(O)CC(O)CC(=O)OC(C)C(C)C(O)C(C)C=CC=CC=CC=CC=CC=CC=CC(OC3OC(C)C(O)C(N)C3O)CC1O2 (stereo not drawn) [AL] | <9.6 | <14 | 101 | >2.42 | 87.1 | <9.6 | <8.6 | 113 | >2.42 | 96.8 | <9.6 | <14 | 107 | >2.42 | 106 | <9.6 | <38 | 127 | >2.42 | 139 | CL ([1]; Rat liver microsomes): <9.6 µL/min/mg; CLint ([1]; Rat liver microsomes): <17 mL/min/kg; Remaining (T = 60 min) ([1]; Rat liver microsomes): 132%; T1/2 ([1]; Rat liver microsomes): >2.42 h; Remaining (T = NCF60 min) ([1]; Rat liver microsomes): 75.4%; % Remaining at 120 min ([2]; Human Plasma): 107%; Half Life ([2]; Human Plasma): >4.82 h; % Remaining at 120 min ([2]; Rat Plasma): 111%; Half Life ([2]; Rat Plasma): >4.82 h
2 | CC1C=CC=CC=CC=CC=CC=CC=CC(OC2OC(C)C(O)C(N)C2O)CC2OC(O)(CC(O)CC(O)C(O)CCC(O)CC(O)CC(=O)OC(C)C(C)C1O)CC(O)C2C(=O)NCCN (stereo not drawn) [AM] | <9.6 | <14 | 107 | >2.42 | 109 | <9.6 | <8.6 | 101 | >2.42 | 115 | <9.6 | <13 | 113 | >2.42 | 121 | <9.6 | <38 | 109 | >2.42 | 176 | CL ([1]; Rat liver microsomes): <9.6 µL/min/mg; CLint ([1]; Rat liver microsomes): <17 mL/min/kg; Remaining (T = 60 min) ([1]; Rat liver microsomes): 113%; T1/2 ([1]; Rat liver microsomes): >2.42 h; Remaining (T = NCF60 min) ([1]; Rat liver microsomes): 83.1%; % Remaining at 120 min ([2]; Human Plasma): 102%; Half Life ([2]; Human Plasma): >4.82 h; % Remaining at 120 min ([2]; Rat Plasma): 118%; Half Life ([2]; Rat Plasma): >4.82 h
3 | CNC(=O)C1C(O)CC2(O)CC(O)CC(O)C(O)CCC(O)CC(O)CC(=O)OC(C)C(C)C(O)C(C)C=CC=CC=CC=CC=CC=CC=CC(OC3OC(C)C(O)C(N)C3O)CC1O2 (stereo not drawn) [AN] | <9.6 | <14 | 92.4 | >2.42 | 113 | <9.6 | <8.6 | 104 | >2.42 | 127 | <9.6 | <13 | 139 | >2.42 | 135 | <9.6 | <38 | 102 | >2.42 | 131 | CL ([1]; Rat liver microsomes): <9.6 µL/min/mg; CLint ([1]; Rat liver microsomes): <17 mL/min/kg; Remaining (T = 60 min) ([1]; Rat liver microsomes): 106%; T1/2 ([1]; Rat liver microsomes): >2.42 h; Remaining (T = NCF60 min) ([1]; Rat liver microsomes): 93%; % Remaining at 120 min ([2]; Human Plasma): 106%; Half Life ([2]; Human Plasma): >4.82 h; % Remaining at 120 min ([2]; Rat Plasma): 118%; Half Life ([2]; Rat Plasma): >4.82 h
4 | CC1C=CC=CC=CC=CC=CC=CC=CC(OC2OC(C)C(O)C(N)C2O)CC2OC(O)(CC(O)CC(O)C(O)CCC(O)CC(O)CC(=O)OC(C)C(C)C1O)CC(O)C2C(=O)NC1CC1 (stereo not drawn) [AR3] | – | – | – | – | – | – | – | – | – | – | – | – | – | – | – | – | – | – | – | – | MIC C. krusei [3]: 250 µM (≈ 241 µg/mL); MIC A. fumigatus 1163 [4]: 500 µM (≈ 482 µg/mL); MIC C. tropicalis [5]: 250 µM (≈ 241 µg/mL); Average MIC [6]: 438 µM; MIC C. albicans [7]: 250 µM (≈ 241 µg/mL)
5 | CC1C=CC=CC=CC=CC=CC=CC=CC(OC2OC(C)C(O)C(N)C2O)CC2OC(O)(CC(O)CC(O)C(O)CCC(O)CC(O)CC(=O)OC(C)C(C)C1O)CC(O)C2C(=O)NC1CCC1 (stereo not drawn) [AR4] | – | – | – | – | – | – | – | – | – | – | – | – | – | – | – | – | – | – | – | – | MIC C. krusei [3]: 550 µM (≈ 537 µg/mL); MIC A. fumigatus 1163 [4]: 1000 µM (≈ 977 µg/mL); MIC C. albicans SN250 [8]: 500 µM (≈ 489 µg/mL); MIC C. tropicalis [5]: 500 µM (≈ 489 µg/mL); Average MIC [6]: 750 µM
6 | CC1C=CC=CC=CC=CC=CC=CC=CC(OC2OC(C)C(O)C(N)C2O)CC2OC(O)(CC(O)CC(O)C(O)CCC(O)CC(O)CC(=O)OC(C)C(C)C1O)CC(O)C2C(=O)NC1CCCC1 (stereo not drawn) [AR5] | – | – | – | – | – | – | – | – | – | – | – | – | – | – | – | – | – | – | – | – | MIC C. krusei [3]: 500 µM (≈ 496 µg/mL); MIC C. albicans SN250 [8]: 500 µM (≈ 496 µg/mL); MIC C. tropicalis [5]: 500 µM (≈ 496 µg/mL); Average MIC [6]: 1063 µM; MIC A. fumigatus 1100 [9]: 1500 µM (≈ 1490 µg/mL)
